Assay results reported in patent US10723695B2, “Microbiocidal phenylamidine derivatives” (SYNGENTA PARTICIPATIONS AG, priority 2015, dated 2020).

Assays:
[1] = system: Blumeria graminis f. sp. tritici (Erysiphe graminis f. sp. tritici); assay: Blumeria graminis f. sp. tritici / wheat / leaf disc preventative (powdery mildew on wheat); assay type: in vivo; settings: foliar, wheat leaf segments cv. Kanzler, compared to untreated control leaf disks, read-out: disease control
Source text: Blumeria graminis f. sp. tritici (Erysiphe graminis f. sp. tritici)/Wheat/Leaf Disc Preventative (Powdery Mildew on Wheat) Wheat leaf segments cv. Kanzler were placed on agar in a multiwell plate (24-well format) and sprayed with the formulated test compound diluted in water. The leaf disks were inoculated by shaking powdery mildew infected plants above the test plates 1 day after application.

[2] = system: Puccinia recondita f. sp. tritici; assay: Puccinia recondita f. sp. tritici / wheat / leaf disc curative (brown rust); assay type: in vivo; settings: foliar, 24 h, wheat leaf segments cv. Kanzler, curative (applied 1 day after inoculation), compared to untreated control leaf disks, read-out: disease control
Experimental: Puccinia recondita f. sp. tritici/Wheat/Leaf Disc Curative (Brown Rust) Wheat leaf segments cv. Kanzler are placed on agar in multiwell plates (24-well format). The leaf segments are inoculated with a spore suspension of the fungus. Plates were stored in darkness at 19° C. and 75% rh. The formulated test compound diluted in water was applied 1 day after inoculation.

[3] = system: Puccinia recondita f. sp. tritici; assay: Puccinia recondita f. sp. tritici / wheat / leaf disc preventative (brown rust); assay type: in vivo; settings: foliar, wheat leaf segments cv. Kanzler, compared to untreated control leaf disks, read-out: disease control
Experimental: Puccinia recondita f. sp. tritici/Wheat/Leaf Disc Preventative (Brown Rust) Wheat leaf segments cv. Kanzler were placed on agar in multiwell plates (24-well format) and sprayed with the formulated test compound diluted in water. The leaf disks were inoculated with a spore suspension of the fungus 1 day after application. The inoculated leaf segments were incubated at 19° C. and 75% rh under a light regime of 12 h light/12 h darkness in a climate cabinet and the activity of a compound was assessed as percent disease control compared to untreated when an appropriate level of disease damage appears in untreated check leaf segments (7-9 days after application).

Phakopsora pachyrhizi = Phakopsora pachyrhizi / soybean / leaf disk preventative (soybean rust); assay type: in vivo; settings: foliar, soybean leaf disks, compared to untreated control leaf disks, read-out: disease control
Experimental: Phakopsora pachyrhizi/Soybean/Leaf Disk Preventative (Soybean Rust) Four-week old soybean plants are sprayed in a spray chamber with the formulated test compound diluted in water. Leaf disks are cut from treated plants and placed on agar into 24-well plates one day after application. Leaf disks are inoculated by spraying them with a spore suspension on their lower leaf surface. After an incubation period in a climate cabinet of 24-36 hours in darkness at 20° C. and 75% rh, the leaf disks are then kept at 20° C. with 12 h light/day and 75% rh. The percentage leaf disk area covered by disease is assessed when an appropriate level of disease appears on untreated check plants (12-14 days after application).

## CCN(C)/C=N/c1cc(OC)c(C(O)(c2ccc(Br)cc2)C(F)(F)F)cc1C (centres unmarked) [Compound E1.025]
other
  melting point: 127 to 129 °C
[1]
  pest or weed control at 200 ppm: ≥ 80%
[2]
  pest or weed control at 200 ppm: ≥ 80%
[3]
  pest or weed control at 200 ppm: ≥ 80%

## COc1cc(/N=C/N(C)C(C)C)c(C)cc1[C@@](O)(c1ccccc1)C(F)(F)F [Compound E1.026]
other
  melting point: 110.5 to 111.7 °C
[1]
  pest or weed control at 200 ppm: ≥ 80%
[2]
  pest or weed control at 200 ppm: ≥ 80%
Phakopsora pachyrhizi
  pest or weed control at 200 ppm: ≥ 80%
[3]
  pest or weed control at 200 ppm: ≥ 80%

## CCN(C)/C=N/c1cc(OC)c(C(O)(c2ccccc2SC)C(F)(F)F)cc1C (centres unmarked) [Compound E1.032]
other
  melting point: 104 to 106 °C
[1]
  pest or weed control at 200 ppm: ≥ 80%
[2]
  pest or weed control at 200 ppm: ≥ 80%
[3]
  pest or weed control at 200 ppm: ≥ 80%

## CCN(C)/C=N/c1cc(OC)c(C(O)(c2ccccc2S(C)(=O)=O)C(F)(F)F)cc1C (centres unmarked) [Compound E1.036]
other
  melting point: 177 to 180 °C
[2]
  pest or weed control at 200 ppm: ≥ 80%
[3]
  pest or weed control at 200 ppm: ≥ 80%

## CCN(C)/C=N/c1cc(OC)c(C(O)(c2ccc(SC(F)(F)F)cc2)C(F)(F)F)cc1C (centres unmarked) [Compound E1.037]
other
  melting point: 64 to 66 °C
[1]
  pest or weed control at 200 ppm: ≥ 80%
[2]
  pest or weed control at 200 ppm: ≥ 80%
Phakopsora pachyrhizi
  pest or weed control at 200 ppm: ≥ 80%

## CCN(C)/C=N/c1cc(OC)c(C(O)(c2ccc(C#N)cc2)C(F)(F)F)cc1C (centres unmarked) [Compound E1.040]
other
  melting point: 167 to 169 °C
[1]
  pest or weed control at 200 ppm: ≥ 80%
[2]
  pest or weed control at 200 ppm: ≥ 80%

## CCN(C)/C=N/c1cc(OC)c(C(O)(c2ccc(SC)cc2)C(F)(F)F)cc1C (centres unmarked) [Compound E1.041]
other
  melting point: 89 to 91 °C
[1]
  pest or weed control at 200 ppm: ≥ 80%
[2]
  pest or weed control at 200 ppm: ≥ 80%

## CCN(C)/C=N/c1cc(OC)c(C(O)(c2ccc(O)cc2)C(F)(F)F)cc1C (centres unmarked) [Compound E1.043]
other
  melting point: 240 to 242 °C
[1]
  pest or weed control at 200 ppm: ≥ 80%
[2]
  pest or weed control at 200 ppm: ≥ 80%

## CCN(C)/C=N/c1cc(OC)c(C(O)(c2cccc(OC(F)F)c2)C(F)(F)F)cc1C (centres unmarked) [Compound E1.044]
other
  melting point: 119 to 121 °C
[1]
  pest or weed control at 200 ppm: ≥ 80%
[2]
  pest or weed control at 200 ppm: ≥ 80%
Phakopsora pachyrhizi
  pest or weed control at 200 ppm: ≥ 80%

## CCN(C)/C=N/c1cc(OC)c(C(O)(c2ccc(OC(F)F)cc2)C(F)(F)F)cc1C (centres unmarked) [Compound E1.045]
other
  melting point: 85 to 87 °C
[1]
  pest or weed control at 200 ppm: ≥ 80%
[2]
  pest or weed control at 200 ppm: ≥ 80%
Phakopsora pachyrhizi
  pest or weed control at 200 ppm: ≥ 80%

## CCN(C)/C=N/c1cc(OC)c(C(O)(C#Cc2ccccc2)C(F)(F)F)cc1C (centres unmarked) [Compound E1.073]
other
  melting point: 88 to 90 °C
[3]
  pest or weed control at 200 ppm: ≥ 80%

## CCN(C)/C=N/c1cc(OC)c(C(O)(Cc2ccc(Cl)cc2)C(F)(F)F)cc1C (centres unmarked) [Compound E1.090]
other
  melting point: 63 to 65 °C
[1]
  pest or weed control at 200 ppm: ≥ 80%
[2]
  pest or weed control at 200 ppm: ≥ 80%
Phakopsora pachyrhizi
  pest or weed control at 200 ppm: ≥ 80%

## CCN(C)/C=N/c1cc(OC)c(C(O)(Cc2cc(C)nc(OC)n2)C(F)(F)F)cc1C (centres unmarked) [Compound E1.094]
other
  melting point: 117 to 119 °C
[1]
  pest or weed control at 200 ppm: ≥ 80%
[2]
  pest or weed control at 200 ppm: ≥ 80%
[3]
  pest or weed control at 200 ppm: ≥ 80%

## CCN(C)/C=N/c1cc(OC)c(C(O)(c2ccc(OC)nc2)C(F)(F)F)cc1C (centres unmarked) [Compound E1.107]
other
  melting point: 100 to 102 °C
[1]
  pest or weed control at 200 ppm: ≥ 80%
[2]
  pest or weed control at 200 ppm: ≥ 80%
[3]
  pest or weed control at 200 ppm: ≥ 80%

## CCN(C)/C=N/c1cc(SC)c(C(O)(c2ccccc2)C(F)(F)F)cc1C (centres unmarked) [Compound E1.113]
other
  melting point: 160 to 165 °C
[1]
  pest or weed control at 200 ppm: ≥ 80%
[2]
  pest or weed control at 200 ppm: ≥ 80%

## CCN(C)/C=N/c1cc(OC)c(C(O)(c2ccccc2)C(C)C)cc1C (centres unmarked) [Compound E1.124]
other
  melting point: 82 to 84 °C
[2]
  pest or weed control at 200 ppm: ≥ 80%
Phakopsora pachyrhizi
  pest or weed control at 200 ppm: ≥ 80%
[3]
  pest or weed control at 200 ppm: ≥ 80%

## CCN(C)/C=N/c1cc(OC)c(C(O)(c2ccccc2)C(C)(C)C)cc1C (centres unmarked) [Compound E1.125]
other
  melting point: 90 to 92 °C
[2]
  pest or weed control at 200 ppm: ≥ 80%
Phakopsora pachyrhizi
  pest or weed control at 200 ppm: ≥ 80%
[3]
  pest or weed control at 200 ppm: ≥ 80%
